Where “and” joins values, the source holds several entries; their conditions need not be identical. Equal values may be shown once. Inconclusive results are not listed. Calls of active or inactive are those of the source.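 The calls were made as follows: active = fitted half-maximal concentration of signal decrease at or below twice the sample's top tested concentration; inconclusive = flat curve between -70 and -30 percent, or poor fit; inactive = flat within 30 percent, signal rise, or potency above limit.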 Starred links: 1 amine or outer side, 2 acyl side, 3 side chain; linkers in the order of their positions; H or OH if unused. Non-standard residues stand in square brackets, D forms with d. Residues, ends and D or L forms follow the SMILES beside them. Groups on a side chain read outwards from the residue. *: point of attachment. Ethylenediamine = C(CN[*:2])N[*:1]; Hyp = O=C(O)[C@@H]1C[C@@H](O)CN1; Phg = N[C@H](C(=O)O)c1ccccc1; CO = O=C([*:1])[*:2]; Bn = c1ccc(C*)cc1
Biological target: T. gondii ME49Luc in IFN-y HeLa, luciferase, 72 h
Test: T. gondii growth inhibition with IFN-gamma, dose response, cell-based, ME49Luc, HeLa, luciferase, 72 h (AID 1259418)

Row | Structure (SMILES) | AC50
1 | Cc1ccc(C(=O)Nc2ccc3c(c2)CCC(=O)N3)s1 | 11.6 µM
2 | COc1ccc(-c2nc(NCCCN3CCCC3)c3ccccc3n2)cc1 | 14.2 µM
3 | O=C(CCC1N=C2c3ccccc3N=C(SCc3ccc(F)cc3)N2C1=O)NCc1ccccc1 (stereo not given) | 31.8 µM
4 | O=C(C[C@@H]1CC[C@@H]2[C@H](COC[C@@H](O)CN2Cc2ccc(Oc3ccccc3)cc2)O1)N1CCN(c2ccccc2)CC1 | 20.7 µM
5 | N#Cc1ccc(-c2ccc([C@@H]3[C@@H](CO)N4C(=O)CNC[C@H]34)cc2)cc1 | 11.8 µM
6 | COc1ccc(N(Cc2nc(-c3ccc(C)cc3)oc2C)S(=O)(=O)c2ccc(C)cc2)cc1 | 13.2 µM
7 | COc1ccc(S(=O)(=O)N(C)C[C@H]2Oc3c(NC(=O)c4nc5ccccc5s4)cccc3C(=O)N([C@@H](C)CO)C[C@@H]2C)cc1 | 1.77 µM and 0.196 µM
8 | Cc1ccc(S(=O)(=O)N2CCC3(CC2)NCCN=C3NCc2ccc(Cl)cc2)cc1C | 8.04 µM
9 | O=C(Cc1cccnc1)N1CC(=O)N2[C@H](CO)[C@H](c3ccc(C#CC4CCCCC4)cc3)[C@@H]2C1 | 17.9 µM
10 | COc1ccc(-c2nc(CN(c3ccccc3OC)S(=O)(=O)c3cccs3)c(C)o2)cc1 | 13.7 µM
11 | C/C=C/c1ccc([C@H]2[C@H](CO)N3CCCCN(S(=O)(=O)c4ccc(OC)cc4)C[C@@H]23)cc1 | > 39 µM (inactive)
12 | CCCNc1nc(-c2ccccc2Cl)nc2ccccc12 | 23.9 µM
13 | CCN1CCCC1CNc1nc(-c2ccc(OC)cc2)nc2ccccc12 (stereo not given) | 15.1 µM
14 | COc1ccccc1C(=O)Nc1ccc(-c2nc(-c3ccc(C)cc3)co2)cc1 | 19.1 µM
15 | N#C[C@H]1[C@@H](c2ccc(C3=CCCCC3)cc2)[C@@H](CO)N1C(=O)Nc1ccccc1F | 23.2 µM
16 | Cc1cccc(CNC2=NCCNC23CCN(S(=O)(=O)c2ccc(CC(C)C)cc2)CC3)c1 | 8.2 µM
17 | CCc1cnc(N2[C@H](CO)[C@@H](c3ccc(C#Cc4ccccc4F)cc3)[C@@H]2C#N)s1 | 21.3 µM
18 | COc1ccccc1N1CCN(C(=O)CC2Nc3c4ccccc4nc(=S)n3C2=O)CC1 (stereo not given) | 20.3 µM
19 | CCCNC(=O)N1CCN(Cc2nc(-c3ccc(C)cc3)oc2C)CC1 | 26.1 µM
20 | Cc1cccc(-c2ccc([C@@H]3[C@H](CO)N4CCCCN(S(=O)(=O)c5ccccc5F)C[C@@H]34)cc2)c1 | 16.6 µM and 10.7 µM
21 | CN(C)C(=O)c1cccc(-c2ccc3c(c2)[C@@H]2[C@@H](CCN2C(=O)Cc2ccccc2)[C@@H](CO)N3)c1 | 17.6 µM
22 | COc1cccc(-c2nc(Cn3c(=O)c4c(C)cc(C)nc4n(-c4ccccc4)c3=O)c(C)o2)c1OC | > 39 µM (inactive)
23 | COCC1(C(=O)N2CCc3c(nc(-c4ccccc4)[nH]c3=O)C2)CCC1 | 36.2 µM
24 | Cc1ccc(-c2nc(CN3CCN(C(=O)Nc4cccc(Cl)c4)CC3)c(C)o2)cc1 | > 39 µM (inactive)

Row | Structure (SMILES) | AC50
25 | O=C(NCCc1csc(-c2ccccc2)n1)[C@H]1CCCN1C(=O)Cc1ccc(Cl)cc1 | > 39 µM (inactive)
26 | Clc1cncc(OC[C@H]2CO[C@@H]3CN(Cc4cccs4)C[C@@H]23)c1 | 15.3 µM
27 | O=C(CCn1cnc2cc(-c3noc(-c4cc5cc(Cl)ccc5[nH]4)n3)ccc21)N1CCCC1 | 23.7 µM
28 | COc1ccccc1C(=O)Nc1ccc(-c2nc(-c3cc(C)ccc3C)co2)cc1 | 5.13 µM
29 | COc1ccc(CNC(=O)CC2N=C3c4ccccc4N=C(SCc4ccc(C)cc4)N3C2=O)cc1 (stereo not given) | 19.4 µM
30 | COc1cccc(NC(=O)N2CC(=O)N3[C@H](CO)[C@H](c4ccc(C#CCC5CCCC5)cc4)[C@@H]3C2)c1 | 17.6 µM
31 | Cc1ccc(-c2nc(CN3CCN(C(=O)NC4CCCC4)CC3)c(C)o2)cc1 | 20.9 µM
32 | O=C(Cc1cccnc1)N1CC(=O)N2[C@H](CO)[C@@H](c3ccc(C4=CCCCC4)cc3)[C@H]2C1 | 25.3 µM
33 | CCOc1ccccc1-c1nc(CN(c2cccc(OC)c2)S(=O)(=O)c2ccc(C)cc2)c(C)o1 | 9.59 µM
34 | O=C(Nc1cccc(F)c1)N1CCCCN2[C@H](CO)[C@@H](c3ccc(C#Cc4cccnc4)cc3)[C@@H]2C1 | 16 µM
35 | CC(C)CC#Cc1ccc([C@@H]2[C@H](CO)N3C(=O)CN(C(=O)c4cccc(F)c4)C[C@@H]23)cc1 | 18.2 µM
36 | CC(C)NC(=O)N1CC(=O)N2[C@H](C1)[C@@H](c1ccc(/C=C/c3ccccc3)cc1)[C@@H]2CO | 10.4 µM
37 | O=S(=O)(c1ccc(Cl)s1)N1CCC2(CC1)NCCN=C2NCc1ccc2c(c1)OCO2 | 34.8 µM
38 | COc1cccc(-c2nc3c(s2)CN(S(=O)(=O)c2cccc(F)c2)CC3)c1 | 11.3 µM
39 | Cc1ccccc1-c1ccc([C@H]2[C@H](CO)N3CCCCN(S(=O)(=O)Cc4ccccc4)C[C@@H]23)cc1 | 16.5 µM
40 | O=C(C[C@@H]1CC[C@@H]2[C@H](COC[C@@H](O)CN2S(=O)(=O)c2ccccc2)O1)NCC1CCCCC1 | 20.8 µM
41 | CN(c1ccc(F)cc1)c1nc(-c2ccc(Cl)cc2)nc2ccccc12 | 13.9 µM
42 | CCCC#Cc1ccc([C@@H]2[C@H]3CN(C(=O)Nc4cccc(F)c4)CC(=O)N3[C@H]2CO)cc1 | 17.4 µM
43 | Cc1ccc(S(=O)(=O)Nc2ccc3c(c2)C(=O)N([C@@H](C)CO)C[C@H](C)[C@H](CN(C)Cc2ccc(C(F)(F)F)cc2)O3)cc1 | 18.2 µM
44 | CN(C)C(=O)COCc1cncc2c1CCN(c1ccccn1)C2 | 6.26 µM
45 | COCCC(=O)C1Cc2nc(-c3ccccc3)sc2N1CC1CC1 (stereo not given) | 27.2 µM and 15.5 µM
46 | COc1ccc(-c2nc3c(s2)CN(S(=O)(=O)c2ccc(C)c(C)c2)CC3)cc1 | 20.7 µM
47 | COc1ccc(-c2nc(N3CCOCC3)c3ccccc3n2)cc1 | 36.1 µM
48 | C[C@H](CO)N1C[C@H](C)[C@H](CN(C)Cc2ccc(Cl)c(Cl)c2)Oc2c(NS(=O)(=O)c3ccc(F)cc3)cccc2C1=O | 20.9 µM

Row | Structure (SMILES) | AC50
49 | O=C(Cc1ccncc1)N1CCCCN2[C@@H](CO)[C@H](c3ccc(C#Cc4ccccc4F)cc3)[C@@H]2C1 | 13.5 µM and 17.9 µM
50 | O=C(Cc1cccnc1)N1CC(=O)N2[C@@H](CO)[C@H](c3ccc(C4=CCCCC4)cc3)[C@@H]2C1 | > 39 µM (inactive)
51 | O=C(c1ccc(F)cc1)N1CC(=O)N2[C@H](C1)[C@H](c1ccc(C#CCC3CCCC3)cc1)[C@@H]2CO | 10.6 µM
52 | COc1ccc(S(=O)(=O)N2CCCCN3[C@H](CO)[C@H](c4ccc(C#CCC(C)C)cc4)[C@H]3C2)cc1 | 5.52 µM
53 | CCOc1ccccc1N(Cc1nc(-c2ccccc2)oc1C)S(=O)(=O)c1cccs1 | 7.76 µM
54 | O=C(Cc1cccnc1)N1CC(=O)N2[C@H](C1)[C@@H](c1ccc(/C=C/c3ccccc3)cc1)[C@@H]2CO | 19.8 µM
55 | O=C(c1ccc(F)cc1)N1CC(=O)N2[C@H](C1)[C@@H](c1ccc(C#CCC3CCCC3)cc1)[C@@H]2CO | 20.4 µM and 10.1 µM
56 | O=S1(=O)c2ccccc2OCC2(CCN(Cc3ccc(F)cc3)CC2)CN1CC1CC1 | 26.6 µM
57 | CCc1ccc(S(=O)(=O)N2CCC3(CC2)NCCN=C3NCc2cc(F)cc(F)c2)cc1 | 6.6 µM
58 | Cc1ccc(Cn2c(=O)c3nn(C)cc3n3c(=O)n(Cc4nc(-c5ccccc5)oc4C)nc23)cc1 | 13.1 µM
59 | O=C(Cc1ccncc1)N1CCCCN2[C@@H](CO)[C@@H](c3ccc(C#Cc4ccccc4F)cc3)[C@@H]2C1 | 20.9 µM and 12.3 µM
60 | CCCNC(=O)N1C[C@@H]2N[C@H](C1)C2c1ccc(-c2ccccc2C)cc1 (stereo not given in full) | 18.1 µM
61 | CCOc1ccc(-c2nc(CN(c3ccccc3C)S(=O)(=O)c3cccs3)c(C)o2)cc1 | 18.8 µM
62 | COc1cccc(CN2CCC3(COCc4cnc(-c5ccccc5)nc43)C2)c1 (stereo not given) | 17.4 µM
63 | CCCCCCCCCCCCCCCC[n+]1ccccc1 | 11.5 µM
64 | CCOc1ccc(-c2nc(CN(c3ccc(OC)cc3)S(=O)(=O)c3ccccc3C)c(C)o2)cc1 | 11.8 µM
65 | C(=C\c1ccc(C2[C@@H]3CN(Cc4ccc5c(c4)OCO5)C[C@H]2N3)cc1)/c1ccccc1 (stereo not given in full) | 13.2 µM
66 | Cc1ccc(-c2coc(-c3ccc(NC(=O)c4cccs4)cc3)n2)c(C)c1 | 13.8 µM
67 | NCCCC[C@@H]1NC(=O)[C@@H](Cc2c[nH]c3ccccc23)NC(=O)[C@H](c2ccccc2)NC(=O)[C@@H]2C[C@@H](OC(=O)NCCN)CN2C(=O)[C@H](Cc2ccccc2)NC(=O)[C@H](Cc2ccc(OCc3ccccc3)cc2)NC1=O (cyclo([Hyp]([CO-Ethylenediamine])[Phg][dW]KY(Bn)F)) | 15.9 µM
68 | CCN1CCCC1CNC(=O)C1CCN(Cc2cc3ccccc3n2Cc2ccccc2Cl)CC1 (stereo not given) | 28.7 µM
69 | COc1ccc(CNC2=NCCNC23CCN(S(=O)(=O)c2ccc(C)cc2C)CC3)cc1 | 18.6 µM
70 | COCCN(CCOC)C(=O)c1cc2c(c3ccccc3n2CC2CC2)n1-c1ncccn1 | 28 µM
